Where a name gives a salt, the structure may show the parent alone.

For experiment [1], the system named is basal locomotor activity of mice. Description: Open field, basal locomotor activity of mice (Example 4B). Type of experiment: in vivo, mouse. Conditions: test condition water. How it is done:
(§1) Cariprazine hydrochloride and escitalopram oxalate were evaluated for anti-manic effects using the amphetamine/chlordiazepoxide (AMPH/CDP) hyperactivity test.
(§2) Male C57B1/6J mice (8 weeks old) from Jackson Laboratories (Bar Harbor, Me.) were used in this study. Upon receipt, mice were assigned unique identification numbers (tail marked) and were group housed (4 mice/cage) in OPTI mouse ventilated cages. All animals remained housed in groups of four during the remainder of the study. During the period of acclimation, mice were examined on a regular basis, handled, and weighed to assure adequate health and suitability. Mice were maintained on a 12/12 light/dark cycle. The room temperature was maintained between 20 and 23° C. with a relative humidity maintained between 30% and 70%. Chow and water were provided ad libitum for the duration of the study. In each test, animals were randomly assigned across treatment groups.
(§3) Distance traveled is measured by consecutive beam breaks.
(§4) Data was analyzed by analysis of variance (ANOVA) followed by Fisher PLSD post-hoc analysis when appropriate. An effect was considered significant if p<0.05. Outliers that fell above and below two standard deviations from the mean were removed from the final analysis.

The subject of experiment [2] is d-amphetamine/chlordiazepoxide mixture (AMPH/CDP)-induced hyperactivity in mice. Put plainly: d-Amphetamine/chlordiazepoxide (AMPH/CDP) hyperactivity test (Example 4A). The class given is in vivo, mouse. Particulars: for Total Distance Traveled [mean ± SEM]: test condition AMPH/CDP, 60 min pretreatment. As to the method:
as §1
as §2, with “C57B1/6J mice from Jackson” for “C57B1/6J mice (8 weeks old) from Jackson”, “this study. Mice were received at 6-weeks of age. Upon receipt,” for “this study. Upon receipt,”, “group housed with 4 mice/cage. All animals” for “group housed (4 mice/cage) in OPTI mouse ventilated cages. All animals”, “the study. All mice were acclimated to the colony room for at least two weeks prior to testing and were subsequently tested at an average age of 8 weeks of age. During the” for “the study. During the”
(§5) d-Amphetamine sulfate (Sigma, 4.0 mg/kg) and chlordiazepoxide (CDP; Sigma, 2.5 mg/kg) were dissolved in sterile water and were administered intraperitoneally at a dose volume of 10 ml/kg.
as §3, §4

Experiment [3] relates to basal locomotor activity of mice. Put plainly: Open field, basal locomotor activity of mice (Example 4A). Type of experiment: in vivo, mouse. Particulars: for Total Distance Traveled [mean ± SEM]: test condition water, 60 min pretreatment. As to the method:
as §1
as §2, with “C57B1/6J mice from Jackson” for “C57B1/6J mice (8 weeks old) from Jackson”, “this study. Mice were received at 6-weeks of age. Upon receipt,” for “this study. Upon receipt,”, “group housed with 4 mice/cage. All animals” for “group housed (4 mice/cage) in OPTI mouse ventilated cages. All animals”, “the study. All mice were acclimated to the colony room for at least two weeks prior to testing and were subsequently tested at an average age of 8 weeks of age. During the” for “the study. During the”
as §3, §4

The test system of experiment [4] is d-amphetamine/chlordiazepoxide mixture (AMPH/CDP)-induced hyperactivity in mice. Description: d-Amphetamine/chlordiazepoxide (AMPH/CDP) hyperactivity test (Example 4B). Type of experiment: in vivo, mouse. Conditions: for Total Distance Traveled [mean ± SEM]: test condition AMPH/CDP. As to the method: as §1, §2, §5, §3, §4
The subject of experiment [5] is extracellular acetylcholine (ACh) in the frontal cortex. Description: Dual-probe microdialysis, acetylcholine in frontal cortex of freely-moving rats. The class given is in vivo, rat. Conditions: for change in basal ACh levels compared to vehicle+saline-treated controls: escitalopram oxalate 1.0 mg/kg sc. As to the method: A dual-probe microdialysis study was conducted to determine the effects of oral administration of cariprazine hydrochloride, alone and in combination with escitalopram oxalate (administered subcutaneously), on extracellular concentrations of acetylcholine (ACh), dopamine (DA) and serotonin (5-HT) in the frontal cortex of freely-moving rats.
Experiments were carried out in male Sprague Dawley rats (250-350 g body weight; Charles River, UK). Animals were housed in groups of six on a 12 h/12 h light/dark cycle (lights on at 07.30 h), at an ambient temperature of 21±2° C. and 55±20% humidity. Food and water were available ad libitum. Animals were allowed to acclimatise to these conditions for at least 5 days prior to the study.
Rats were anaesthetised with isoflurane (5% to induce, 2% to maintain) in an O2/N2O (1 litre/min each) mixture delivered via an anaesthetic unit (St Bernard Medical Services, UK). Concentric microdialysis probes with 2 mm exposed polyarylethersulphone (PAES) membrane tip (CMA) were stereotaxically implanted bilaterally into the prefrontal cortex (coordinates: AP: +3.2 mm; L: +/−2.5 mm relative to bregma; V: −4.0 mm relative to the skull surface; taken from the stereotaxic atlas of Paxinos and Watson (Paxinos G, Watson C., The Rat Brain in Stereotaxic Coordinates, 2nd Edition, London: Academic Press, 1986). The upper incisor bar was set at 3.3 mm below the interaural line so that the skull surface between bregma and lambda was horizontal. The coordinates for each probe were identical from bregma except for the lateral measurement as one probe was placed to the left of the midline and the other to the right. Samples were measured from the same side in each rat (e.g. left probe was used to measure ACh and right probe was used to measure DA and 5-HT). Additional burr holes were made for skull screws (stainless steel) and the probes were secured using dental cement. […]

Experiment [6] deals with basal locomotor activity of mice. Description: Open field, basal locomotor activity of mice (Example 4A). The class given is in vivo, mouse.
The mark [7] stands for this setting: cariprazine HCl 0.03 mg/kg oral.
[8] abbreviates: cariprazine HCl 0.10 mg/kg oral.
Where [9] appears, read: cariprazine hydrochloride 0.10 mg/kg oral.
Setting [10] is: escitalopram oxalate 0.10 mg/kg oral.
Where [11] appears, read: escitalopram oxalate 0.50 mg/kg oral.

In the case of `CN(C)C(=O)N[C@H]1CC[C@H](CCN2CCN(c3cccc(Cl)c3Cl)CC2)CC1` [Cariprazine hydrochloride, trans-4-{2-[4-(2,3-dichlorophenyl)-piperazin-1-yl]-ethyl}-N,N-dimethylcarbamoyl-cyclohexylamine hydrochloride], the “Total Distance Traveled [mean ± SEM]” value in experiment [1] (setting [7]) came to 4013 ± 343 cm/60 min; in experiment [1] (setting [8]), 2697 ± 259 cm/60 min; in experiment [2] (0.03 mg/kg oral), 32122 ± 2942 cm/60 min; in experiment [2] (0.10 mg/kg oral), 13688 ± 2349 cm/60 min; in experiment [2] (0.30 mg/kg oral), 2525 ± 204 cm/60 min; in experiment [3] (0.03 mg/kg oral), 4056 ± 427 cm/60 min. Besides, the “Total Distance Traveled [mean ± SEM]” value was 1726 ± 112 cm/60 min in experiment [3] (0.10 mg/kg oral), 917 ± 73 cm/60 min in experiment [3] (0.30 mg/kg oral), 32628 ± 2510 cm/60 min in experiment [4] (setting [7]) and 22594 ± 2838 cm/60 min in experiment [4] (setting [8]). Besides, the “effect on mixture-induced hyperactivity” value in experiment [2] (cariprazine hydrochloride 0.10 and 0.30 mg/kg oral) is on record as “significantly decreased”. Besides, the “effect on basal locomotor activity compared to water” value in experiment [3] (setting [9]) was “trend toward a significant decrease”. The “effect on basal activity compared to water” value in experiment [3] (cariprazine hydrochloride 0.30 mg/kg oral) was “significantly decreased”. Besides, the “effect on enhanced locomotor activity produced by the CDP+amphetamine mixture” value in experiment [4] (setting [9]) is “significantly attenuated”. In addition, the “efflux of ACh in the frontal cortex” value in experiment [5] (cariprazine hydrochloride alone 0.03, 0.1 and 0.3 mg/kg po) is “no significant effect”.
Consider `CN(C)CCC[C@@]1(c2ccc(F)cc2)OCc2cc(C#N)ccc21` [Escitalopram oxalate, 1-[3-(dimethyl-amino)propyl]-1-(p-fluorophenyl)-5-phthalancarbonitrile], for which the “Total Distance Traveled [mean ± SEM]” value in experiment [1] (setting [10]) was determined as 5551 ± 382 cm/60 min; in experiment [1] (setting [11]), 5238 ± 242 cm/60 min; in experiment [2] (0.50 mg/kg oral) it was 30067 ± 1901 cm/60 min; in experiment [2] (2.0 mg/kg oral), 36112 ± 1934 cm/60 min; in experiment [2] (5.0 mg/kg oral) it was 39639 ± 1582 cm/60 min; in experiment [3] (0.50 mg/kg oral), 4435 ± 389 cm/60 min. Further, the “Total Distance Traveled [mean ± SEM]” value is recorded as 6499 ± 445 cm/60 min in experiment [3] (5.0 mg/kg oral); 39700 ± 3477 cm/60 min in experiment [4] (setting [10]); 40881 ± 3123 cm/60 min in experiment [4] (setting [11]); 5939 ± 369 cm/60 min in experiment [6] (test condition water, 2.0 mg/kg oral, 60 min pretreatment). In addition, the “effect on mixture-induced hyperactivity” value in experiment [2] (escitalopram oxalate 0.5 mg/kg oral) is recorded as “trend toward a significant decrease”; in experiment [2] (escitalopram oxalate 5.0 mg/kg oral), “increased”. Besides, in experiment [4] (escitalopram oxalate alone, either dose tested (0.10 and 0.50 mg/kg oral)), the “effect on mixture-induced locomotor activity” value is listed as “no significant effect”. For the same compound, the “change in basal ACh levels compared to vehicle+saline-treated controls” value in experiment [5] (100 min post-administration) is recorded as −55%; in experiment [5] (240 min post-administration), −56%. In experiment [6] (escitalopram oxalate 0.5, 2.0 and 5.0 mg/kg oral), the “effect on basal activity compared to water-treated mice” value is “Neither valproate nor escitalopram oxalate (0.5, 2.0, and 5.0 mg/kg) had a significant effect”.

These data come from patent publication US20110015208A1, “PHARMACEUTICAL COMPOSITIONS CONTAINING DOPAMINE RECEPTOR LIGANDS AND METHODS OF TREATMENT USING DOPAMINE RECEPTOR LIGANDS” (priority 2007, published 2011).
